In patent publication US12403135B2, “4H-pyrrolo[3,2-c]pyridin-4-one derivatives” (Bayer Aktiengesellschaft, priority 2019, dated 2025):

How the values were obtained:
Format in all cases: cell-based
[1] = target: Ba/F3-EGFR-V769_D770 insASV cells (Homo sapiens, UniProt P00533, DUP767-769, cells depend on it); assay: BA/F3 (ASV) proliferation, EGFR Exon20 insertion mutation; settings: Table 9; EGFR Exon20 insertion mutations; read-out: BA/F3 (ASV) IC50
Description: (§1) Plates were incubated at 37° C. for 48 h. Retrovirus was harvested by filtering the media supernatant through a 0.45 μm filter.
(§2) Ba/F3 cells purchased from DSMZ were grown in RPMI+10% FBS+10 ng/mL IL-3 and infected with filtered retroviral supernatant at a 1:2 dilution. Polybrene was added to a concentration of 8 μg/mL, plates were spun for 90 min, and incubated overnight at 37° C. 2 μg/mL puromycin was added to the infected cells 24 h after infection and cells were continually grown in the presence of puromycin and 10 ng/mL IL-3. Following stably expressing Ba/F3 cell lines were generated: Ba/F3-EGFR-V769_D770 insASV, Ba/F3-EGFR-D770_N771 insNPG, Ba/F3-EGFR-N771_P772 insH, Ba/F3-EGFR-H773_V774 insNPH, Ba/F3-EGFR-D770_N771 insSVD C797S, Ba/F3-EGFR-E746_A750del C797S, Ba/F3-EGFR-L858R C797S, Ba/F3-EGFR L861Q and Ba/F3-ERBB2-A775_G776insYVMA (Ba/F3-vector-control).

[2] = system: Ba/F3-EGFR-L858R C797S cells; assay: BA/F3 (EGFR L858R C797S) proliferation, acquired resistance; settings: Table 11, acquired resistance space
Description: as §1, §2

[3] = target: Ba/F3-EGFR-L858R cells (Homo sapiens, UniProt P00533, L858R, cells depend on it); assay: BA/F3 EGFR L858R cell survival assay, Cell Titer-Glo; settings: Table 10; classical activating and uncommon EGFR mutations; read-out: BA/F3 (EGFR L858R) IC50
Chain of Ba/F3-EGFR-L858R cells (P00533 whole entry L858R): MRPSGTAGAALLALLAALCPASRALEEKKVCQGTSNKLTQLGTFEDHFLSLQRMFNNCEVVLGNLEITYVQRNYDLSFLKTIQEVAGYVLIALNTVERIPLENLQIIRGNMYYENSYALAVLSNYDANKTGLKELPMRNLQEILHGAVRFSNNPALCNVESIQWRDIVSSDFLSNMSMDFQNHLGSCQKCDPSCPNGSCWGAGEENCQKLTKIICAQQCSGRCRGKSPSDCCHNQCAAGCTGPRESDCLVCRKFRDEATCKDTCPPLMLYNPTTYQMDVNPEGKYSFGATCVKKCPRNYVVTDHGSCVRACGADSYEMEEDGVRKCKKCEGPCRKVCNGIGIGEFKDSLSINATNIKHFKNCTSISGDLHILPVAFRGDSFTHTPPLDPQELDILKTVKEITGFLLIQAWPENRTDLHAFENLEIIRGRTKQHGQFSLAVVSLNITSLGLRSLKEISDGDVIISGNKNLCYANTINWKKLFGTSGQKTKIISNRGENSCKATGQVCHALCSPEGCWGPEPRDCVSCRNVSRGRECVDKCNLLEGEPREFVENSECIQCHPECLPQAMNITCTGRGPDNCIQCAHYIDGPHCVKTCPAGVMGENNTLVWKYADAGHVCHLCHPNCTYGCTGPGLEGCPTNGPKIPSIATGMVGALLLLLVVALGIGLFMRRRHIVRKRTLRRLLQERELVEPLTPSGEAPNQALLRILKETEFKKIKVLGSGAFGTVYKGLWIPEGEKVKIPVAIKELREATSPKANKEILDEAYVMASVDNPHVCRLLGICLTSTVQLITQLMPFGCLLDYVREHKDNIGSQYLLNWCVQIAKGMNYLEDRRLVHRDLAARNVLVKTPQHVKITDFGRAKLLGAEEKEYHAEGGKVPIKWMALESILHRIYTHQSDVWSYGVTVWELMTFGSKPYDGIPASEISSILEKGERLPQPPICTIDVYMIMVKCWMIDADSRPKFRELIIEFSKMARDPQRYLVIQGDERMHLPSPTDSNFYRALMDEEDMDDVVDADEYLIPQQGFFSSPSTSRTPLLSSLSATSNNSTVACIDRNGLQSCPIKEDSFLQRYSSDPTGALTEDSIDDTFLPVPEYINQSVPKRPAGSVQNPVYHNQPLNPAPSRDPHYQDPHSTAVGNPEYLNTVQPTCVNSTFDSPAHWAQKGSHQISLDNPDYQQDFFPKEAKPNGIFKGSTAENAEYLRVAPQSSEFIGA
Description: as §1
(§3) Ba/F3 cells purchased from DSMZ were grown in RPMI+10% FBS+10 ng/mL IL-3 and infected with filtered retroviral supernatant at a 1:2 dilution. Polybrene was added to a concentration of 8 μg/mL, plates were spun for 90 min, and incubated overnight at 37° C. 2 μg/mL puromycin was added to the infected cells 24 h after infection and cells were continually grown in the presence of puromycin and 10 ng/mL IL-3. Following stably expressing Ba/F3 cell lines were generated: Ba/F3-EGFR-L858R, Ba/F3-EGFR-delLREA, (Ba/F3-vector-control).
(§4) For cell survival assays, Ba/F3 cells were grown to a density of 1-2 million cells per mL, spun down and resuspended in media without IL-3, and replated at a concentration 200,000-500,000 cells per mL. The cells ectopically expressing pBABEpuro empty vector were plated with 10 ng/mL IL-3.
(§5) 2 days later, cells were plated in 50 μL in a 384 well plate at a concentration of 4000 cells per well for cells assayed in the absence of IL-3 and 2000 cells per well for cells (pBABE puro empty vector) assayed in the presence of IL-3. 100 nL of compound was added to each well using a 100 nL pin head, and plates were incubated at 37° C. for 48 h.
(§6) Cell viability was measured by adding 20 μL of Cell Titer-Glo Luminescent Cell Viability Reagent diluted 1:3 in PBS. Plates were sealed with Perkin Elmer Top-Seal, inverted several times to mix, and immediately centrifuged at 1000 rpm for 2 min. Plates were incubated in low light conditions for 8-10 min and luminescence was measured.

[4] = target: Ba/F3-EGFR-D770_N771 insNPG cells (Homo sapiens, UniProt P00533, INS772GNP, cells depend on it); assay: BA/F3 (insNPG) proliferation, EGFR Exon20 insertion mutation; settings: Table 9; EGFR Exon20 insertion mutations; read-out: BA/F3 (insNPG) IC50
Chain of Ba/F3-EGFR-D770_N771 insNPG cells (P00533 with tags, fused parts or gaps INS772GNP): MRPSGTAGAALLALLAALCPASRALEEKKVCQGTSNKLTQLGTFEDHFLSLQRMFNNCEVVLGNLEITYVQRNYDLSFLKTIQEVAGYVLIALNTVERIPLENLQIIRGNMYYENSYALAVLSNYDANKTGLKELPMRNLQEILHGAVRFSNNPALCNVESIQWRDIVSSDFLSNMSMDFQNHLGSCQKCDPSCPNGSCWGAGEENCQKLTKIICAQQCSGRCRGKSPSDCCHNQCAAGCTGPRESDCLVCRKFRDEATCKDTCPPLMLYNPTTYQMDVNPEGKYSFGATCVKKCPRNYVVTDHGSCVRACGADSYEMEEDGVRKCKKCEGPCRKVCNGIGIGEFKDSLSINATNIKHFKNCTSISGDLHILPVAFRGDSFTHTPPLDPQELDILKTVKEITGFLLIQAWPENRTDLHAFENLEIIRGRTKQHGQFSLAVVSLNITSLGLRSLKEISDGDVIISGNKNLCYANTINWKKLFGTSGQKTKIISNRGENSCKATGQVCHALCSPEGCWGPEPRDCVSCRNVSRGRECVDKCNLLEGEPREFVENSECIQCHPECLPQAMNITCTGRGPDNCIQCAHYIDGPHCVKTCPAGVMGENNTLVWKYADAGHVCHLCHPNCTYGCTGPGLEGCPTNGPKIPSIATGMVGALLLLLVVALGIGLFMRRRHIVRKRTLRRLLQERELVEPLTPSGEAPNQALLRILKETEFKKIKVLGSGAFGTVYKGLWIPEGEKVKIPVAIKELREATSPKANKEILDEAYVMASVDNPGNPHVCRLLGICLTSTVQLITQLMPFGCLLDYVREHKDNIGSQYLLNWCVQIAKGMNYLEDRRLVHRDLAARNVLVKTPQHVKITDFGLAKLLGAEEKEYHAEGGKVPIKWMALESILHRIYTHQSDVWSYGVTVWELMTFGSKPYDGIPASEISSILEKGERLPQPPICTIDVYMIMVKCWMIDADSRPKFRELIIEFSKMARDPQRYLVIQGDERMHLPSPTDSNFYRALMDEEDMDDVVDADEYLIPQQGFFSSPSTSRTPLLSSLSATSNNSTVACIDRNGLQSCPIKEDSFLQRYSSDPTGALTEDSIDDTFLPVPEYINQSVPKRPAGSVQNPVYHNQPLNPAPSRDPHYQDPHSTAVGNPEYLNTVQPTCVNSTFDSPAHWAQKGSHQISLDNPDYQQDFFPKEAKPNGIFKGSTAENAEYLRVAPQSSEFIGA
Description: as §1, §2

[5] = target: Ba/F3-ERBB2-A775_G776insYVMA cells (Homo sapiens, UniProt P04626, DUP772-775, cells depend on it); assay: BA/F3 (ERBB2 A775_G776 insYVMA) proliferation; settings: Table 12; read-out: BA/F3 (ERBB2 A775_G776 insYVMA) IC50
Chain of Ba/F3-ERBB2-A775_G776insYVMA cells (P04626 with tags, fused parts or gaps DUP772-775): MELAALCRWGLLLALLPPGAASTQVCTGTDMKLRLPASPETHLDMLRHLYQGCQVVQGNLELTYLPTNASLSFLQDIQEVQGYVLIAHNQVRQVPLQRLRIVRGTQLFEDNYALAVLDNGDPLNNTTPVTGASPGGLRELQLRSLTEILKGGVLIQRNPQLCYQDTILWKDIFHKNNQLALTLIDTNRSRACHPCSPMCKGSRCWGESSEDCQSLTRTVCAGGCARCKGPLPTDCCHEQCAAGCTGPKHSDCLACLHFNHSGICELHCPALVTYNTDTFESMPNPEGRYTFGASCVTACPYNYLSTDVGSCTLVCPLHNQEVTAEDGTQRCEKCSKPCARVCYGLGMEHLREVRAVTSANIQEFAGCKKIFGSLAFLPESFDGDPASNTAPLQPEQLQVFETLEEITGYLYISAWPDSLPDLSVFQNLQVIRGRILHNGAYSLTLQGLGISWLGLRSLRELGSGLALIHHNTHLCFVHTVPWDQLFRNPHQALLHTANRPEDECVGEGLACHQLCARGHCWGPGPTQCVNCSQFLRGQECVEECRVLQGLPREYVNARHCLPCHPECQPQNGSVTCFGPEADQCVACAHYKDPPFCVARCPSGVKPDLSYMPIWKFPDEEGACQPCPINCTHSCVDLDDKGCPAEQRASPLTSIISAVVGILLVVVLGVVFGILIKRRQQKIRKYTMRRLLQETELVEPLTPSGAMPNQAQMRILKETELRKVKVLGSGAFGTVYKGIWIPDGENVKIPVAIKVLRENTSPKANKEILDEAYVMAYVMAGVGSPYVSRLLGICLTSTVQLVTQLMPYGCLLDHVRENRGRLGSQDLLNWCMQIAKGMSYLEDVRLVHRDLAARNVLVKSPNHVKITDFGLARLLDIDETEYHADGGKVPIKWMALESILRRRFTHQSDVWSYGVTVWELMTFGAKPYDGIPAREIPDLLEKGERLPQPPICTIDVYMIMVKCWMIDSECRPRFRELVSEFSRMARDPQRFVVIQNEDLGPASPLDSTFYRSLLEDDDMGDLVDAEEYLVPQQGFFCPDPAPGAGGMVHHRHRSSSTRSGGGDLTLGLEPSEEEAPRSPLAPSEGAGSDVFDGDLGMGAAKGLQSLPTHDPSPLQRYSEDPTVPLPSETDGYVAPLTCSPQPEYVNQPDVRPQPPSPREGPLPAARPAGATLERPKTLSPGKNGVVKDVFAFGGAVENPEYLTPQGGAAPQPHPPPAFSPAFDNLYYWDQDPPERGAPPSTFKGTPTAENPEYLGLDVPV
Description: as §1, §2

[6] = system: Ba/F3-EGFR-D770_N771 insSVD C797S cells; assay: BA/F3 (EGFR D770_N771 insSVD C797S) proliferation, acquired resistance; settings: Ba/F3 EGFR-D770-N771ins_SVD; Table 11; acquired resistance space
Description: as §1, §2

[7] = system: Ba/F3-EGFR-E746_A750del C797S cells; assay: BA/F3 (EGFR E746_A750del C797S) proliferation, acquired resistance; settings: Table 11, acquired resistance space
Description: as §1, §2

[8] = system: HCC-827 cells (EGFRex19del); assay: HCC-827 cell proliferation, Cell Titer Glo, 72 h; settings: Homo sapiens
Description: (§7) HCC-827 cells were purchased from ATCC. 400 HCC-829 cells per well were seeded in growth medium (RPMI1640, 10% FCS) in a 384-well plate (CORNING #3571). Seed reference plate for time zero determination on the same day. All plates were incubated overnight at 37° C. After 24 hours, test compound were added in 7-step dilution using HP Compound printer and incubated at 37° C. for 72 h. After 3 days, 30 μL/well CTG solution (Promega Cell Titer Glo solution; catalog #G755B and G756B) were added to each well, incubated for 30 minutes and the plate were read on PheraStar. Proliferation is calculated after subtracting time zero luminescence values from day 4 values and comparing to untreated wells.
The IC50 values were determined using the four parameter fit.

[9] = system: PC9 cells (EGFRex19del); assay: PC9 cell proliferation, Cell Titer Glo, 72 h; settings: Homo sapiens
Description: as §7, with “PC9” for “HCC-827”, “PC9” for “HCC-829”, “(DMEM,” for “(RPMI1640,”, “wells. The IC50 values were determined using the four parameter fit.” for “wells.”

[10] = system: Ba/F3-EGFR L861Q cells; assay: BA/F3 (EGFR L861Q) proliferation, uncommon EGFR mutation; settings: Table 10, classical activating and uncommon EGFR mutations
Description: as §1, §2

[11] = system: Ba/F3-EGFR-delLREA cells (EGFR del19/delLREA (746-750), E746_A750del); assay: BA/F3 EGFR del19/delLREA (746-750) (E746_A750del) cell survival assay, Cell Titer-Glo; settings: Table 10, classical activating and uncommon EGFR mutations, read-out: BA/F3 (EGFR E746_A750del) IC50
Description: as §1, §3, §4, §5, §6

[12] = HCC827, Table 12, several values per example
[13] = PC-9, Table 12, several values per example

Chain of Ba/F3-EGFR-V769_D770 insASV cells (P00533 with tags, fused parts or gaps DUP767-769): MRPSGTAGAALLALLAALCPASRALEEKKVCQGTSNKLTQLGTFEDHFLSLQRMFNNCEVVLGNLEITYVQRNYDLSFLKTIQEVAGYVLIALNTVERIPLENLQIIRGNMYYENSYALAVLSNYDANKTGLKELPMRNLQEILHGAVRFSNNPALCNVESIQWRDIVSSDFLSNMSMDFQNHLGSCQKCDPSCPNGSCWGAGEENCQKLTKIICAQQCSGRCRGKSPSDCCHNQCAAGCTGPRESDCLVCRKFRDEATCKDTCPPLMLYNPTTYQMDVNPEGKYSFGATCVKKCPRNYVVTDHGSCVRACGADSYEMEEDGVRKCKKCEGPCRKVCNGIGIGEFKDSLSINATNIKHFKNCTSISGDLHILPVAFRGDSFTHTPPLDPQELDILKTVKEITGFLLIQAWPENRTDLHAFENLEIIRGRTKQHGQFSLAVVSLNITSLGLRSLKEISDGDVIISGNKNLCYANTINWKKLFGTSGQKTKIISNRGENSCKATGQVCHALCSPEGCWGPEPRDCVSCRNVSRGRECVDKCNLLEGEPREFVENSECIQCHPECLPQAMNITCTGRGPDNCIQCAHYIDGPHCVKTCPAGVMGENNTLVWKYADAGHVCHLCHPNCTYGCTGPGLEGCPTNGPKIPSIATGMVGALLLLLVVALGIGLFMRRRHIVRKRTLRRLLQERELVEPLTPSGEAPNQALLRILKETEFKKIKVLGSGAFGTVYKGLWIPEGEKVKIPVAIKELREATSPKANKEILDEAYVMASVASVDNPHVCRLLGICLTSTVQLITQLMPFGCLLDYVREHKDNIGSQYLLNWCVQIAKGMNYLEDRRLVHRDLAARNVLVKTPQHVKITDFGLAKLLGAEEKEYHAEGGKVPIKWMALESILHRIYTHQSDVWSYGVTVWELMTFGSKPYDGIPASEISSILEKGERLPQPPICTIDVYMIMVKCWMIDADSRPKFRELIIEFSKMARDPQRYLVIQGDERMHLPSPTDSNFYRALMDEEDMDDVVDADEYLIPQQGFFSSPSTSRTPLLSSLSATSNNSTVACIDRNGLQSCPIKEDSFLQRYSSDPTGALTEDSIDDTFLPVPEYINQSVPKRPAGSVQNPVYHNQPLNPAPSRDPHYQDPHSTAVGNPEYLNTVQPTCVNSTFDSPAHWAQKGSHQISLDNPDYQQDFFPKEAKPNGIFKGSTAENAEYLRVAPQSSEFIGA

Row | SMILES | GI50 [1] | IC50 [2] | GI50 [3] | GI50 [4] | GI50 [5] | IC50 [6] | IC50 [7] | IC50 [8, 12] | IC50 [9, 13] | IC50 [10] | IC50 [11] | IC50 ([8]; HCC827, 72 h, Table 12, several values per example) | IC50 ([9]; PC-9, 72 h, Table 12, several values per example)
1 | COc1c(Cl)cccc1Nc1c(-c2ccncc2OC[C@H]2CCCO2)[nH]c2c1C(=O)NCC2 [Example 67, 3-(3-chloro-2-methoxyanilino)-2-(3-{[(2R)-oxolan-2-yl]methoxy}pyridin-4-yl)-1,5,6,7-tetrahydro-4H-pyrrolo[3,2-c]pyridin-4-one] | 12.8 nM | 1.82 nM | 1.48 nM | 13.1 nM | 11.5 nM | 23.8 nM | 0.387 nM | < 3 nM | 1.77 nM | 19 nM | 0.643 nM |  | 
2 | COc1c(F)cccc1Nc1c(-c2ccncc2OC[C@@H](C)OC)[nH]c2c1C(=O)NCC2 [Example 92, 3-(3-fluoro-2-methoxyanilino)-2-{3-[(2R)-2-methoxypropoxy]pyridin-4-yl}-1,5,6,7-tetrahydro-4H-pyrrolo[3,2-c]pyridin-4-one] | 17.2 nM | 1.61 nM | 1.31 nM | 13.9 nM | 14.9 nM | 25.6 nM | 0.363 nM |  |  | 38 nM | 0.375 nM | < 3 nM | 3.27 nM
3 | COc1c(Cl)cccc1Nc1c(-c2ccncc2OC[C@@H]2CCCO2)[nH]c2c1C(=O)NCC2 [Example 66, 3-(3-chloro-2-methoxyanilino)-2-(3-{[(2S)-oxolan-2-yl]methoxy}pyridin-4-yl)-1,5,6,7-tetrahydro-4H-pyrrolo[3,2-c]pyridin-4-one] | 6.4 nM | 1.22 nM | 0.685 nM | 5.57 nM | 6.62 nM | 15.3 nM | 0.288 nM | < 3 nM | 0.944 nM | 9.81 nM | < 0.15 nM |  | 
4 | COc1c(Cl)cccc1Nc1c(-c2ccncc2OCC(C)(C)OC)[nH]c2c1C(=O)NCC2 [Example 33, 3-(3-chloro-2-methoxyanilino)-2-[3-(2-methoxy-2-methylpropoxy)pyridin-4-yl]-1,5,6,7-tetrahydro-4H-pyrrolo[3,2-c]pyridin-4-one] | 30.4 nM | 3.34 nM | 3.16 nM | 26.2 nM | 41.1 nM | 49.4 nM | 1.42 nM |  |  | 57.3 nM | 2.96 nM |  | 
